What is called IC50 is the concentration that gives 50% inhibition. Broadly, the melting point is the temperature, or range, at which the solid turns liquid.

The source of these data is article PMC7814726, “Phytochemical constituents and biological activities of Salvia macrosiphon Boiss” (BMC Chemistry, 2021).

The subject of data set [1] is A549 lung cancer cell line. As to the kind of experiment: MTT cytotoxicity assay, A549. The data set is classed as cell-based, human. To be noted: for IC50: Homo sapiens; for selectivity index A549: IC50 HDF / IC50 A549. On the procedure:
(§1) Two different human breast cancer cell lines (MCF-7 and MDA-MB-231), lung cancer cell line (A-549) and normal cell (Human Dermal Fibroblast) were purchased from Pasture Institute of Iran, Tehran, Iran. The medium of RPMI 1640 (PAA, Germany) including sodium bicarbonate and N-hydroxyethylpiperazone-n-2-ethanesulfonic Acid (HEPES, Biosera, England) was used to maintain the cell lines. The medium was enriched with fetal bovine serum (FBS; Gibco, USA) and antibiotics. Then, incubated in air atmosphere enriched 5% CO2 at 37 °C. The cytotoxic activity of all fractions and compounds were examined by the MTT (3-[4,5-dimethylthiazole-2-yl]-2,5-diphenyltetrazolium bromide) (Sigma-Aldrich, USA) assay.
(§2) Cancer is the second leading cause of death and responsible for approximately 13% of mortality in the world. […] One of the efficient approaches to new drugs is screening herbal extracts. In the present study, S. macrosiphon was selected for the possible cytotoxic activity. For this purpose, different fractions of aerial parts of the plants including n-hexane, chloroform, ethyl acetate, and water-soluble fractions were screened towards lung cancer cell line (A549) and breast cancer cell lines (MCF-7 and MDA-MB-231) as well as normal cell, human dermal fibroblasts (HDF), using MTT assay comparing with etoposide as a standard drug (Table 2). The inhibitory concentration, 50% (IC50) values (µg /mL) were calculated by linear regression analysis, expressed in mean ± SD.

Data set [2] deals with MDA-MB-231 human breast cancer cell line. As to the kind of experiment: MTT cytotoxicity assay, MDA-MB-231. The data set is classed as cell-based. The settings on record: for IC50: Homo sapiens; for selectivity index MDA-MB-231: IC50 HDF / IC50 MDA-MB-231. The method, then:
as §1, §2

Data set [3] deals with Human Dermal Fibroblast (HDF). As to the kind of experiment: MTT cytotoxicity assay, normal cells. The data set is classed as cell-based. To be noted: read-out: IC50 HDF. On the procedure: as §1, §2
On the technique in general: Tetrazolium dyes change colour on reduction, which living cells bring about.

For data set [4], the system named is MCF-7 human breast cancer cell line. Description: MTT cytotoxicity assay, MCF-7. In kind it is cell-based. To be noted: for IC50: Homo sapiens; for selectivity index MCF-7: IC50 HDF / IC50 MCF-7. The method, then:
as §1, §2

Details of data set [5]: method as in earlier work. The settings on record: earlier report; cited from earlier work.
[6] abbreviates: MDA-MB-231, read-out: IC50 MDA-MB-231.
Where [7] appears, read: A549, MTT assay, isolated compounds, read-out: IC50 A549.
[8] abbreviates: MDA-MB-231, MTT assay, isolated compounds, read-out: IC50 MDA-MB-231.
Setting [9] is: MTT assay, normal cells, isolated compounds.
The mark [10] stands for this setting: MCF7, MTT assay, isolated compounds, read-out: IC50 MCF-7.

Read-outs that look alike come from different tables or passages of the source.

`C=C[C@]1(C)CCC2[C@@]3(C)CCCC(C)(C)C3CC[C@@]2(C)O1` (stereo partly drawn) [Compound 1, 13-epi manoyl oxide]: the IC50 in data set [1] (A549, read-out: IC50 A549) was found to be 19.4 ± 1.96 µM; in data set [2] (setting [6]), 22.2 ± 1.72 µM; in data set [3], 338 ± 9.2 µM; in data set [4] (MCF7, read-out: IC50 MCF-7), 15.8 ± 0.35 µM. For the same compound, in data set [1], the “selectivity index A549” value was 17.4. For the same compound, in data set [2], the “selectivity index MDA-MB-231” value is 15.2. The “selectivity index MCF-7” value in data set [4] is recorded as 21.4.

`C=C[C@]1(C)CCC2[C@@]3(C)CCCC(C)(C)C3[C@@H](O)C[C@@]2(C)O1` (stereo partly drawn) [Compound 2, 6α-hydroxy-13-epimanoyl oxide] displayed a melting point of 95 to 98 °C. Further, the IC50 in data set [1] (setting [7]) came out at 170 ± 11.6 µM. Also, the IC50 in data set [2] (setting [8]) was 120 ± 5.09 µM. Further, the IC50 in data set [3] (setting [9]) was more than 653 µM. In addition, the IC50 in data set [4] (setting [10]) was found to be 98 ± 11.3 µM.

Regarding `COc1ccc(-c2cc(=O)c3c(O)cc(OC)cc3o2)cc1` [Compound 3, 5-hydroxy-7,4'-dimethoxyflavone], the IC50 is 469 ± 22.8 µM in data set [1] (setting [7]), 470 ± 23.1 µM in data set [2] (setting [8]), more than 971 µM in data set [3] (setting [9]) and 428 ± 23.1 µM in data set [4] (setting [10]).

Turning to `CC[C@H](CC[C@@H](C)[C@H]1CC[C@H]2[C@@H]3CC=C4C[C@@H](O)CC[C@]4(C)[C@H]3CC[C@]12C)C(C)C` [Compound 4, β-sitosterol], the IC50 was more than 100 µM in data set [1] (A549, read-out: IC50 A549); more than 100 µM in data set [2] (setting [6]); more than 100 µM in data set [4] (MCF7, read-out: IC50 MCF-7). The cytotoxicity result in data set [5] was “no activity”.

Consider `COc1cc([C@@H]2c3cc4c(cc3[C@@H](O[C@@H]3O[C@@H]5CO[C@@H](C)O[C@H]5[C@H](O)[C@H]3O)[C@H]3COC(=O)[C@H]23)OCO4)cc(OC)c1O` [Etoposide, reference compound], for which the IC50 was determined as 28.2 ± 1.32 µM in data set [1] (setting [7]); 16.6 ± 0.78 µg/mL in data set [1] (A549, MTT assay, mean ± SD, fractions of S. macrosiphon, read-out: IC50 A549); 34.5 ± 0.36 µM in data set [2] (setting [8]); 20.3 ± 0.21 µg/mL in data set [2] (MDA-MB-231, MTT assay, mean ± SD, fractions of S. macrosiphon, read-out: IC50 MDA-MB-231); 158 ± 2.04 µM in data set [3] (setting [9]); 92.7 ± 1.2 µg/mL in data set [3] (MTT assay, normal cells, mean ± SD, fractions of S. macrosiphon). Also, the IC50 in data set [4] (setting [10]) stood at 37.5 ± 0.66 µM; in data set [4] (MCF7, MTT assay, mean ± SD, fractions of S. macrosiphon, read-out: IC50 MCF-7) it was 22.1 ± 0.39 µg/mL. In addition, the “selectivity index A549” value in data set [1] is reported as 5.6. In data set [2], the “selectivity index MDA-MB-231” value was 4.6. Also, the “selectivity index MCF-7” value in data set [4] came out at 4.2.
